According to paper PMC9227077, “Prediction Models for Brain Distribution of Drugs Based on Biomimetic Chromatographic Data” (Molecules, 2022):
Like-named read-outs stand apart in the source and are kept apart here.

Experiments:
[1] = Unbound fraction in brain (fu,brain), brain homogenate method; settings: Kb from literature fu,brain
From the text: However, Kp,uu,brain can be derived from Kp,brain by combining the unbound fraction of the drug in the plasma (fu,p) and in the brain (fu,brain) or the unbound brain volume of distribution, Vu,brain [7]. […] The relevant equations are included in Section 3. Evidently, fu,p is obtained by standard methods for plasma protein binding.
Experimentally determined Kp,brain values for 42 compounds were obtained from the literature and were converted to logBB. They preferably referred to rat studies in order to achieve homogeneity in the data. Experimental fu,brain values were available from the literature for 39 compounds in the dataset. When more than one value was available, the average was calculated. Most values were determined on rats.
The decimal logarithm of Kb, logKb, was used for the development of the models.

[2] = design: method as in ref 23, 24, 27, 29, 45 (a number printed in a supplementary file, which may have a reference list of its own: not looked up in the article's list); settings: 100% aqueous mobile phase, previously obtained in authors' laboratory, cited from earlier work
human serum albumin = test system: human serum albumin; design: method as in ref 45 (a number printed in a supplementary file, which may have a reference list of its own: not looked up in the article's list); settings: cited from earlier work
α1 acid glycoprotein = test system: α1 acid glycoprotein; design: method as in ref 23, 24, 27, 29, 45 (a number printed in a supplementary file, which may have a reference list of its own: not looked up in the article's list); settings: pH=7.4, 100% aqueous mobile phase; previously obtained in authors' laboratory; cited from earlier work
[3] = cited from earlier work
[4] = rat brain tissue; cited from earlier work
[5] = cited from earlier work; remark: listed apart in the source
[6] = most values in rats, average if more than one value; cited from earlier work
[7] = brain slice method; cited from earlier work
[8] = pH=7.4, isocratic, 10% acetonitrile, available for 37 compounds, remaining calculated by equation
[9] = literature Kp,brain converted to logBB
[10] = total brain/total plasma, preferably rat studies
[11] = pH=5.0, octanol-water, experimental
[12] = pH=7.4, octanol-water, experimental
[13] = octanol-water partition coefficient, experimental

| Compound | logKb exper. [1] | logkw IAM ([2]; pH=5.0, PBS) | logkw IAM ([2]; pH=7.4, PBS) | logk10,HSA (human serum albumin; [8]) | logkwAGP (α1 acid glycoprotein) | logBB exper. [3, 9] | Kp,brain [3, 10] | Kp,uu,brain [4] | logD [5, 11] | logD [5, 12] | fu,brain [6] | Vu,brain [7] | logk10,HSA (human serum albumin) | logP [5, 13] | Kp,brain ([3]; rat, in vivo) | logBB exper. ([3]; rat, in vivo) | logP [5] |
| --- | --- | --- | --- | --- | --- | --- | --- | --- | --- | --- | --- | --- | --- | --- | --- | --- | --- |
| CC(=O)Nc1ccc(O)cc1 [Acetaminophen] | 0.692 | -0.06 | 0.18 | -0.56 | 0.10 | -0.31 | 0.49 | 0.18 | – | – | – | – | – | – | – | – | – |
| CN(C)CCC=C1c2ccccc2CCc2ccccc21 [Amitriptyline] | – | 2.06 | 2.99 | 0.89 | 2.40 | 0.98 | 9.55 | – | 1.13 | 2.50 | 0.010 | 310.00 mL/g brain | – | – | – | – | – |
| Cc1cc(=O)n(-c2ccccc2)n1C [Antipyrine] | – | – | 0.45 | – | 0.88 | – | 0.80 | 0.71 | – | – | 0.862 | – | -1.04 | – | – | – | – |
| Cn1c(=O)c2c(ncn2C)n(C)c1=O [Caffeine] | – | – | 0.26 | – | – | – | – | 0.77 | – | – | – | – | – | – | – | – | – |
| COC(=O)[C@H]1[C@@H](OC(=O)c2ccccc2)C[C@@H]2CC[C@H]1N2C [Cocaine] | – | – | 1.90 | 0.33 | – | – | – | 0.37 | -0.96 | 1.07 | – | – | – | 3.01 | 3.98 | 0.6 | – |
| CC(C)Cc1ccc(C(C)C(=O)O)cc1 (stereo not shown) [Ibuprofen] | – | 1.55 | 0.87 | – | – | – | – | 0.56 | 2.15 | – | – | – | – | – | – | – | – |
| COc1ccc2c(c1)c(CC(=O)O)c(C)n2C(=O)c1ccc(Cl)cc1 [Indomethacin] | – | 2.93 | 2.41 | – | 1.59 | -1.26 | 0.05 | – | 2.95 | – | 0.042 | 14.00 mL/g brain | 1.76 | – | – | – | – |
| CCCC(C)(COC(N)=O)COC(N)=O [Meprobamate] | 0.245 | 0.54 | 0.72 | -0.36 | – | – | – | – | 1.07 | 0.70 | 0.638 | – | – | 0.70 | – | – | – |
| CN(C)C(=N)N=C(N)N [Metformin] | 1.270 | – | -0.37 | – | – | – | – | – | – | – | – | 10.00 mL/g brain | – | – | – | – | – |
| Cc1ncc2n1-c1ccc(Cl)cc1C(c1ccccc1F)=NC2 [Midazolam] | – | 1.93 | 2.77 | 0.99 | – | 0.36 | 2.29 | 2.19 | 1.95 | 3.27 | 0.026 | 29.00 mL/g brain | – | – | – | – | – |
| CN(C)C(=O)Oc1cccc([N+](C)(C)C)c1 [Neostigmine] | 1.270 | -0.08 | 0.37 | -1.91 | – | – | – | – | -2.16 | -2.16 | 0.950 | 3.20 mL/g brain | – | -2.16 | – | – | – |
| CCn1cc(C(=O)O)c(=O)c2cc(F)c(N3CCNCC3)cc21 [Norfloxacin] | 0.139 | – | – | -0.92 | – | -1.15 | 0.07 | 0.05 | -1.17 | -1.03 | 0.580 | 2.90 mL/g brain | – | -1.03 | – | – | – |
| CC1COc2c(N3CCN(C)CC3)c(F)cc3c(=O)c(C(=O)O)cn1c23 (stereo not shown) [Ofloxacin] | – | 1.35 | 1.30 | – | – | – | – | 0.12 | -1.31 | – | – | – | -0.65 | – | – | – | – |
| C=CCOc1ccccc1OCC(O)CNC(C)C (stereo not shown) [Oxprenolol] | – | 0.87 | 1.47 | -0.25 | – | 0.025 | 1.06 | – | -0.61 | 0.32 | 0.280 | 11.80 mL/g brain | – | – | – | – | – |
| O=C1NC(=O)C(c2ccccc2)(c2ccccc2)N1 [Phenytoin] | – | 1.94 | 1.75 | 0.44 | 1.60 | -0.04 | 0.91 | 0.45 | 1.95 | 2.17 | 0.121 | – | – | 2.24 | – | – | – |
| CC(C)NCC(O)COc1cccc2ccccc12 (stereo not shown) [Propranolol] | – | 1.63 | 2.33 | 0.48 | 2.20 | 0.64 | 4.37 | – | – | – | 0.025 | 112.00 mL/g brain | – | – | – | – | – |
| C=C[C@H]1C[N@@]2CC[C@H]1C[C@@H]2[C@@H](O)c1ccnc2ccc(OC)cc12 [Quinidine] | – | – | 2.34 | – | 1.71 | – | – | 0.03 | – | – | – | – | 0.29 | – | – | – | – |
| CNC(=C[N+](=O)[O-])NCCSCc1ccc(CN(C)C)o1 [Ranitidine] | 1.317 | – | 0.61 | -0.41 | – | -1.23 | 0.06 | – | -3.37 | -0.53 | – | – | – | – | – | – | 1.28 |
| Cc1nc2n(c(=O)c1CCN1CCC(c3noc4cc(F)ccc34)CC1)CCCC2 [Risperidone] | – | – | 2.49 | 0.13 | – | – | – | 0.08 | – | – | – | – | – | – | – | – | – |
| O=C(O)c1ccccc1O [Salicylic acid] | 0.230 | 0.46 | -0.08 | – | – | – | – | – | – | – | 0.630 | 1.00 mL/g brain | – | – | – | – | – |
| CSc1ccc2c(c1)N(CCC1CCCCN1C)c1ccccc1S2 (stereo not shown) [Thioridazine] | – | – | – | 1.59 | – | 0.24 | 1.74 | – | 3.06 | 3.34 | 0.001 | 3333.00 mL/g brain | – | 5.90 | – | – | – |
